The text below walks through data of patent publication US12084473B2, “β-D-2′-deoxy-2′-α-fluoro-2′-β-C-substituted-2-modified-N6-substituted purine nucleotides for HCV treatment” (Atea Pharmaceuticals, Inc., priority 2015, dated 2024).

SMILES strings stand for the structures. Read-outs that look alike come from different tables or passages of the source. A value given as a limit tells only on which side of the number the result lay.

The test system of series [1] is micro-patterned human hepatocyte co-cultures. Put plainly: Human Hepatocyte Co-Cultures (HepatoPac): cytotoxicity and hepatocyte health. Type of series: cell-based. The settings on record: for IC50: Homo sapiens, Hepatocyte. As to the method:
Cytotoxicity and hepatocyte health were assessed in triplicate by measuring ALT leakage, urea production, albumin secretion and cellular ATP contents in micro-patterned human hepatocyte co-cultures (HepatoPac®, Hepregen Corporation) prepared by seeding cryopreserved human hepatocytes (single donor) and 3T3 J2 mouse fibroblasts in microtiter plates according to procedures established by Hepregen. Culture media was replaced with fresh media containing TA, test article, (0, 1, 10 or 30 μM) every 2 or 3 days through day 16. […] Cellular ATP levels were measured on days 9 and 21. ATP signals in stromal-only control cultures (murine 3T3 fibroblasts) were subtracted from those of human HepatoPac co-cultures to obtain hepatocyte-specific effects. See, Table 4, 5 and 6 below.

The nature of series [2]: Stability in fresh human whole blood. The class given is in vitro ADME. The settings on record: 10 μM, up to 120 min, FIG. 5. As for the experimental part:
The stability of selected compounds in fresh human whole blood and in human liver S9 fraction was determined in incubations containing 10 μM test compound. After incubations of 0, 30, 60 min, and up to 120 min, aliquots were removed and immediately extracted with 3 volumes of ice-cold methanol/acetonitrile (1:1, v/v). Extracts were centrifuged and supernatants were analyzed by LC-MS/MS for concentrations of unchanged test compound and potential metabolites.

Series [3] in a line: Human Bone Marrow Progenitor Cell Assay. The settings on record: human, fresh human bone marrow progenitor cells; read-out: CC50 in human bone marrow stem cells. Type of series: cell-based. As to the method:
Fresh human bone marrow progenitor cells (Invitrogen) suspended in either BFU-E or GM-CSF-specific culture medium were added, at 10^5 cells/well, to triplicate serial dilutions of TA in 6-well plates. After 14-day incubations, colony counts were used to determine CC50 values. BFU-E colonies were confirmed using the benzidene technique.

A short description of a further series: iPS Cardiomyocyte Assay. The class given is cell-based, human. The settings on record: human, iPS cardiomyocytes. As to the method: iPS Cardiomyocytes (Cellular Dynamics) were seeded in microliter plates at 1.5×10^4 cells per well. After 48-hr incubation, cells were washed and maintenance medium containing serially diluted TA was added in triplicate. After incubating for an additional 3 days, cell viability was measured by staining with XTT and CC50 values were calculated.

The target in a further series is T1, human DNA polymerase α (Homo sapiens, UniProt P09884).
T1 construct: purchased CHIMERx
T1 sequence (P09884 1-1462): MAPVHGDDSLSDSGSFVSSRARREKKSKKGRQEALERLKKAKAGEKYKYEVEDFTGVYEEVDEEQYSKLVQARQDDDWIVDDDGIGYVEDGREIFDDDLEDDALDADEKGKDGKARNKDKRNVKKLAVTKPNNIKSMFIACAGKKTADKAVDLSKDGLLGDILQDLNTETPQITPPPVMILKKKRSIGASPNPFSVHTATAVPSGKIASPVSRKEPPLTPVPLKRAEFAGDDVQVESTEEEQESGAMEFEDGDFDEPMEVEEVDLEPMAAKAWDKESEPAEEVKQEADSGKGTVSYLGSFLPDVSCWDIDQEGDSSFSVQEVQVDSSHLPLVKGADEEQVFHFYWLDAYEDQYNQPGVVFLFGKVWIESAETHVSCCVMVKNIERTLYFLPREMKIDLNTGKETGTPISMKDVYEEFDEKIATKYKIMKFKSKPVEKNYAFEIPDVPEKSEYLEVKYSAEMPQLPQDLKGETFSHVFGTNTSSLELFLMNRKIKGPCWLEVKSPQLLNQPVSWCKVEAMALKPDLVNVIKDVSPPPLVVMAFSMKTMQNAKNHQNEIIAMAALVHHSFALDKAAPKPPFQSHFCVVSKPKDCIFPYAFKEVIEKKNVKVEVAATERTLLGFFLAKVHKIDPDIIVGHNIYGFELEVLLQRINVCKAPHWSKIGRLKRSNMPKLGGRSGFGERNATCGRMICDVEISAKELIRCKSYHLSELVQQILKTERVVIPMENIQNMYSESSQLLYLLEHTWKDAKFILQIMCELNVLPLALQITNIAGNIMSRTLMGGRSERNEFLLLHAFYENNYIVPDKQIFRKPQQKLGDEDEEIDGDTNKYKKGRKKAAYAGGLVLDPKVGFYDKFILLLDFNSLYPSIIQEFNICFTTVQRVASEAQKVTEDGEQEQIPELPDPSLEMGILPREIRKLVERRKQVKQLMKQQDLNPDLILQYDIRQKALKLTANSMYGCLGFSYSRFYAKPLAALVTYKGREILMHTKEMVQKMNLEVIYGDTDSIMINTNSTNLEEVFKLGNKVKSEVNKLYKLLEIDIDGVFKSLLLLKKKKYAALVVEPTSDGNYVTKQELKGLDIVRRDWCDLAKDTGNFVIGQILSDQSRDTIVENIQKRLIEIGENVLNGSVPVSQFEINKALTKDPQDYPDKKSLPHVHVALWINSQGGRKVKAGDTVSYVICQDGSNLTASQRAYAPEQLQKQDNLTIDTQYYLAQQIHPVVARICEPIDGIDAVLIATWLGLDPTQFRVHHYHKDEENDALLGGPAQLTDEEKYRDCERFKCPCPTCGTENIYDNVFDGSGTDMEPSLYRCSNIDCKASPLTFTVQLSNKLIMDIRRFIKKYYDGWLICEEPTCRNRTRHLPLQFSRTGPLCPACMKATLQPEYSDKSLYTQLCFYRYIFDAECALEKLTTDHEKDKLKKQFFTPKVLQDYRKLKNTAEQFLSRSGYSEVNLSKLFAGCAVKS
The experiment in a line: Human DNA Polymerase Assays. Type of series: biochemical. The settings on record: at concentrations up to 100 μM. As for the experimental part:
(§1) Inhibition of human DNA polymerases α, β and γ (CHIMERx) was determined in triplicate in reaction mixtures of serially diluted TA, 0.05 mM dCTP, dTTP, and dATP, 10 μCi [^32P]-α-dGTP (800 Ci/mmol), 20 μg activated calf thymus DNA and additional reagents specific for each polymerase.

A further series addresses T2, human DNA polymerase β (Homo sapiens, UniProt P06746).
T2 construct: purchased CHIMERx
Put plainly: Human DNA Polymerase Assays. The class given is biochemical. The settings on record: at concentrations up to 100 μM. As to the method: as §1

The test system of the next series is other RNA or DNA viruses. The experiment in a line: Activity against other RNA or DNA viruses. Type of series: cell-based. The settings on record: at concentrations up to 100 μM.
The next series deals with host cell lines. Put plainly: Toxicity in host cell lines. The class given is cell-based. The settings on record: at concentrations up to 100 μM.

For the compound `CNc1nc(N)nc2c1ncn2[C@@H]1OC(CO[P@@](=O)(N[C@@H](C)C(=O)OC(C)C)Oc2ccccc2)[C@@H](O)[C@@]1(C)F` (stereo partly shown) [Compound 5-2], the IC50 was more than 30 µM in series [1] (48 h, Table 5, Day 2, read-out: Effect on Albumin Secretion, 50% Inhibitory Concentration (IC50)); more than 30 µM in series [1] (48 h, Table 6, Day 2, read-out: Effect on Albumin Secretion, 50% Inhibitory Concentration (IC50)); more than 30 µM in series [1] (120 h, Table 5, Day 5, read-out: Effect on Albumin Secretion, 50% Inhibitory Concentration (IC50)); more than 30 µM in series [1] (120 h, Table 6, Day 5, read-out: Effect on Albumin Secretion, 50% Inhibitory Concentration (IC50)); more than 30 µM in series [1] (168 h, Table 5, Day 7, read-out: Effect on Albumin Secretion, 50% Inhibitory Concentration (IC50)); more than 30 µM in series [1] (168 h, Table 6, Day 7, read-out: Effect on Albumin Secretion, 50% Inhibitory Concentration (IC50)). Besides, the IC50 in series [1] (216 h, Day 9, read-out: Effect on Cellular ATP Concentrations, 50% Inhibitory Concentration (IC50)) is more than 30 µM; in series [1] (216 h, Table 5, Day 9, read-out: Effect on Albumin Secretion, 50% Inhibitory Concentration (IC50)), more than 30 µM; in series [1] (216 h, Table 6, Day 9, read-out: Effect on Albumin Secretion, 50% Inhibitory Concentration (IC50)), more than 30 µM; in series [1] (288 h, Table 6, Day 12, read-out: Effect on Albumin Secretion, 50% Inhibitory Concentration (IC50)) it was more than 30 µM; in series [1] (384 h, Table 6, Day 16, read-out: Effect on Albumin Secretion, 50% Inhibitory Concentration (IC50)), 24.2 µM; in series [1] (504 h, Day 21, read-out: Effect on Cellular ATP Concentrations, 50% Inhibitory Concentration (IC50)), 12.8 µM. In series [1] (504 h, Table 6, Day 21, read-out: Effect on Albumin Secretion, 50% Inhibitory Concentration (IC50)), the IC50 turned out to be 14.5 µM. For the same compound, the “signs of cytotoxicity by ALT leakage, albumin secretion, urea production and cellular ATP content” value in series [1] (concentrations up to 30 μM, up to 12 days) is given as “no signs of cytotoxicity”. Also, the “cytotoxicity with extended exposure” value in series [1] (up to 21 days of culture) is listed as “minor indications of cytotoxicity”. In series [2], the “stability in human blood” value is reported as “excellent stability”.

What is called CC50 is the concentration that lowers cell viability or growth by half. For `CC(C)OC(=O)[C@H](C)N[P@](=O)(OCC1O[C@@H](n2cnc3c(N(C)C)nc(N)nc32)[C@](C)(F)[C@@H]1O)Oc1ccccc1` (stereo partly drawn) [Compound 25, isopropyl ((((S)-(2R,3R,4R,5R)-5-(2-amino-6-(dimethylamino)-9H-purin-9-yl)-4-fluoro-3-hydroxy-4-methyltetrahydrofuran-2-yl)methoxy)-phenoxy-phosphoryl)-L-alaninate], the CC50 at 14 day in series [3] was more than 100 µM. The same compound came in with a cytotoxic concentration (CC50) at 3 day in “iPS Cardiomyocyte Assay” of more than 100 µM. In addition, the “inhibition of human DNA polymerase α” value against human DNA polymerase α is “No inhibition”. Moreover, the “inhibition of human DNA polymerase β” value on human DNA polymerase β was “No inhibition”. Moreover, in the series on other RNA or DNA viruses, the “activity against other RNA or DNA viruses” value is “no activity”. The “toxicity in all host cell lines” value in the series on host cell lines is “no toxicity”.

Take `CC(C)OC(=O)[C@H](C)N[P@](=O)(OCC1O[C@@H](n2cnc3c(N(C)C4CC4)nc(N)nc32)[C@](C)(F)[C@@H]1O)Oc1ccccc1` (stereo partly drawn) [Compound 27, isopropyl ((((S)-(2R,3R,4R,5R)-5-(2-amino-6-(methylcyclopropanamino)-9H-purin-9-yl)-4-fluoro-3-hydroxy-4-methyltetrahydrofuran-2-yl)methoxy)-phenoxy-phosphoryl)-L-alaninate]: the CC50 at 14 day in series [3] was more than 100 µM. This compound also registered a CC50 at 3 day in “iPS Cardiomyocyte Assay” of more than 100 µM. Further, the “inhibition of human DNA polymerase α” value against human DNA polymerase α was “No inhibition”. Moreover, at human DNA polymerase β, the “inhibition of human DNA polymerase β” value was “No inhibition”. Also, the “activity against other RNA or DNA viruses” value in the series with other RNA or DNA viruses is recorded as “no activity”. Also, the “toxicity in all host cell lines” value with host cell lines is recorded as “no toxicity”.
